Read-outs that look alike come from different tables or passages of the source.
Tests used:
[1] = Oxygen radical absorbance capacity by fluorescence (ORAC-FL); details: mean ± SD
Method: Trolox was used as standard, fluorescein as fluorescent probe and 2,2′-azobis(2-amidinopropane) dihydrochloride (AAPH) as the peroxyl radical source. Ferulic acid was used as a positive control.
The antioxidant power of BCPOs was determined following the ORAC-FL method using fluorescein as the fluorescent probe. (±)-6-Hydroxy-2,5,7,8-tetramethylchromane-2-carboxylic acid (Trolox), fluorescein (FL) and AAPH were bought from Sigma-Aldrich (Saint Louis, MO, USA). A Varioskan Flash plate reader with built-in injectors (Thermo Scientific, Waltham, MA, USA) was used. The final volume reaction mixture was 200 µL and the reaction was carried out at 37 °C in 75 mM phosphate buffer (pH 7.4). The tested compounds and Trolox standard were dissolved in DMSO to 10 mM and further diluted in phosphate buffer. The final concentrations were 0.1–1 µM for the tested compounds and 1–8 µM for Trolox standard. The blank was composed of 120 µL of FL, 60 µL of AAPH and 20 µL of phosphate buffer (pH = 7.4) and was added in each assay. The antioxidant (20 µL) and fluorescein (FL, 120 µL, final concentration of 70 nM) were incubated in a black 96-well microplate Nunc, purchazed from Thermo Fisher Scientific, Ecublens, Switzerland) for 15 min at 37 °C. Then, AAPH, 60 µL, final concentration of 12 mM) solution was added quickly using the built-in injector. […] The microplate was automatically shaken prior to each reading. All the experiments were made in triplicate and at least three different assays were performed for each sample.
Using MS Excel software, regression equations were extrapolated by plotting the net AUC against the antioxidant concentration. The ORAC values were then obtained by dividing the slope of the latter curve between the slope of the Trolox curve obtained in the same assay. Final ORAC values were expressed as Trolox equivalents. Data are expressed as mean ± SD.

[2] = target: T1, horse serum BuChE (eqBuChE) (Equus caballus, UniProt P81908); assay: Inhibition of eqBuChE (Ellman's assay); type: biochemical; details: 10 µM compound
T1 construct: BuChE from horse serum (lyophilized powder, Sigma-Aldrich); purchased Sigma-Aldrich; host or cells: horse serum
Method: (§1) For the preliminary screening of the inhibitory potencies, Electrophorus electricus AChE (EeAChE) and horse serum BuChE (eqBuChE) were used following the Ellman’s assay.
(§2) Assessment of the inhibitory power of BCPOs was performed following the spectrophotometric method of Ellman using purified AChE from Electrophorus electricus (Type V-S, Sigma-Aldrich) or BuChE from horse serum (lyophilized powder, Sigma-Aldrich). Enzymes were first dissolved in 0.1 M phosphate buffer (pH 8.0) and then aliquoted in small vials for easy handling. Compounds stock solutions in DMSO (10 mM) were diluted when necessary with DMSO to prepare appropriate dilutions of each compound. The assay was performed in a final volume of 3 mL of a 0.1 M phosphate-buffered solution at pH 8.0, containing 5,5′-dithiobis-2-nitrobenzoic acid (DTNB, 2625 µL, 0.35 mM, final concentration), EeAChE (29 µL, 0.035 U/mL final concentration) or eqBuChE (60 µL, 0.05 U/mL final concentration) tested compound (3 µL, different concentrations) and 1% (w/v) Bovine Albumin Serum phosphate-buffered (pH 8.0) solution (BSA, 40 µL). The inhibition in comparison to control without compound was determined by pre-incubating this blend at room temperature with each compound at nine different concentrations for 10 min. Then, acetylthiocholine iodide (105 µL, 0.35 mM, final concentration) or butyrylthiocholine iodide (150 µL, 0.5 mM final concentration) was added and incubated for another 15 min at rt. […] Calculation of IC50 values was performed with GraphPad Prism 5. Each concentration was measured in triplicate. Data are expressed as mean ± SEM.

[3] = target: T2, Electrophorus electricus AChE (EeAChE) (Electrophorus electricus, UniProt O42275); assay: Inhibition of EeAChE (Ellman's assay); type: biochemical; details: mean ± SEM, at least three independent experiments
T2 construct: purified AChE from Electrophorus electricus (Type V-S, Sigma-Aldrich); purchased Sigma-Aldrich Type V-S
Method: as §1, §2

[4] = ORAC-FL, cited from earlier work
in vitro = details: for Papp: PAMPA, pH 7.4
Method: Penetration across the BBB is an essential property for compounds targeting the CNS. […] The filter membrane of the donor plate was coated with PBL (Polar Brain Lipid, Avanti, AL, USA) in dodecane (4 µL of 20 mg/mL PBL in dodecane) and the acceptor well was filled with 300 µL of PBS pH 7.4 buffer ([…]). Tested compounds were dissolved first in DMSO and that diluted with PBS pH 7.4 to reach the final concentration 100 µM in the donor well. […] 300 µL of the donor solution was added to the donor wells ([…]) and the donor filter plate was carefully put on the acceptor plate so that coated membrane was “in touch” with both donor solution and acceptor buffer. Test compound diffused from the donor well through the lipid membrane (Area = 0.28 cm^2) to the acceptor well. The concentration of the drug in both donor and the acceptor wells was assessed after 3, 4, 5 and 6 h of incubation in quadruplicate using the UV plate reader Synergy HT (Biotek, Winooski, VT, USA) at the maximum absorption wavelength of each compound.

T2 sequence (O42275 24-633): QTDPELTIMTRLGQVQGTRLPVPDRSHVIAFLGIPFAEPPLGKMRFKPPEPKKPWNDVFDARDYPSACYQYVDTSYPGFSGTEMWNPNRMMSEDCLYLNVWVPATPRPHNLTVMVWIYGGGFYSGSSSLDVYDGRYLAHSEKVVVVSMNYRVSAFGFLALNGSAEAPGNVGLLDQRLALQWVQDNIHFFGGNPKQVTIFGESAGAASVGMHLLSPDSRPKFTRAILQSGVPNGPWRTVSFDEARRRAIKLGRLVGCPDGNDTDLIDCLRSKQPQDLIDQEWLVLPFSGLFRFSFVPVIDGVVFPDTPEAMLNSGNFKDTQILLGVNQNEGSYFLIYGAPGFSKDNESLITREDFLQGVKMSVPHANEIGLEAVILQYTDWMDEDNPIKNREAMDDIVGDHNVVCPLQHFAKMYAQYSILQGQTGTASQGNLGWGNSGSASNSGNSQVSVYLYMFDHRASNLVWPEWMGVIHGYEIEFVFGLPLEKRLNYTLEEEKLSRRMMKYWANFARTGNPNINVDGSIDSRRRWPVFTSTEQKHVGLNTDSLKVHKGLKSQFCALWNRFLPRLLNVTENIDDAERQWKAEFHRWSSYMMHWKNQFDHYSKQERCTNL
T1 sequence (P81908 whole entry): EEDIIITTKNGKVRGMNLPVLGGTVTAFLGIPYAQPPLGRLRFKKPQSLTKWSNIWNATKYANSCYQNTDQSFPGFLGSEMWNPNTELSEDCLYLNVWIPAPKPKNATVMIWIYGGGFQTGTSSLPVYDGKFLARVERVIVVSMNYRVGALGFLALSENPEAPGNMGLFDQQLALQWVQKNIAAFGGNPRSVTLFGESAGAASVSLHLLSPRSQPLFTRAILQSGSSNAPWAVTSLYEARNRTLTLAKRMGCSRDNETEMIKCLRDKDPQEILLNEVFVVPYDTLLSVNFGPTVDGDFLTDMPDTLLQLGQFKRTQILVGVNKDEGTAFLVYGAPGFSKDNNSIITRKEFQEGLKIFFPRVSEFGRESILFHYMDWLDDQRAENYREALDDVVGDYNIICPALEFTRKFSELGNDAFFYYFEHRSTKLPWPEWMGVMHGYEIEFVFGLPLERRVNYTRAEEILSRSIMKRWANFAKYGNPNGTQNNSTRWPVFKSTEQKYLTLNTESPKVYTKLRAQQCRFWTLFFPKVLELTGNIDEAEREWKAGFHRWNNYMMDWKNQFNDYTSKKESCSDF

| SMILES | ORAC [1] | inhibition at 10 µM [2] | IC50 [3] | ORAC [4] | ORAC ([4]; listed as ferulic acid) | Papp (in vitro) | BBB Penetration Estimation CNS (+/−) (in vitro; PAMPA-BBB class) |
| --- | --- | --- | --- | --- | --- | --- | --- |
| O=c1c2c(nc3n1CCC3)Oc1ccc3ccccc3c1C2c1ccccc1 (centres unmarked) [3Aa, 14-Phenyl-10,11-dihydro-14H-benzo[5,6]chromeno[2,3-d]pyrrolo[1,2-a]pyrimidin-13(9H)-one] | 2.6 ± 0.1 Trolox equivalents | 12.1 ± 1.4% | 518 ± 87.9 nM |  |  |  |  |
| O=c1c2c(nc3n1CCCCC3)Oc1ccc3ccccc3c1C2c1ccccc1 (centres unmarked) [3Ac, 16-Phenyl-10,11,12,13,-tetrahydro-16H-benzo[5,6]chromeno[2′,3′,4,5]pyrimido[1,2-a]azepin-15(9H)-one] | 2.5 ± 0.2 Trolox equivalents | 28.4 ± 7.3% | 301 ± 6.5 nM |  |  |  |  |
| COc1cccc(C2c3c(nc4n(c3=O)CCCCC4)Oc3ccc4ccccc4c32)c1 (centres unmarked) [3Bc, 16-(3′-Methoxyphenyl)-10,11,12,13-tetrahydro-16H-benzo[5,6]chromeno[2′,3′,4,5]pyrimido[1,2-a]azepin-15(9H)-one] | 3.5 ± 0.3 Trolox equivalents | < 10% | 108 ± 7.2 nM |  |  |  |  |
| Cc1ccc(C2c3c(nc4n(c3=O)CCC4)Oc3ccc4ccccc4c32)cc1 (centres unmarked) [3Ca, 14-(4′-Methylphenyl)-10,11-dihydro-14H-benzo[5,6]chromeno[2,3-d]pyrrolo[1,2-a]pyrimidin-13(9H)-one] | 2.7 ± 0.3 Trolox equivalents | 17.4 ± 1.8% | 112 ± 21.7 nM |  |  |  |  |
| Cc1ccc(C2c3c(nc4n(c3=O)CCCCC4)Oc3ccc4ccccc4c32)cc1 (centres unmarked) [3Cc, 16-(4’-Methylphenyl)-10,11,12,13-tetrahydro-16H-benzo[5,6]chromeno[2′,3′,4,5]pyrimido[1,2-a]azepin-15(9H)-one] | 3.1 ± 0.2 Trolox equivalents | < 10% | 167 ± 7.8 nM |  |  |  |  |
| O=c1c2c(nc3n1CCC3)Oc1c(ccc3ccccc13)C2c1ccccc1 (centres unmarked) [4Aa, 7-Phenyl-11,12-dihydro-7H-benzo[7,8]chromeno[2,3-d]pyrrolo[1,2-a]pyrimidin-8(10H)-one] | 2.1 ± 0.1 Trolox equivalents | 23.1 ± 3.1% | 318 ± 26 nM |  |  |  |  |
| O=c1c2c(nc3n1CCCC3)Oc1c(ccc3ccccc13)C2c1ccccc1 (centres unmarked) [4Ab, 7-Phenyl-10,11,12,13-tetrahydro-7H-benzo[7,8]chromeno[2,3-d]pyrido[1,2-a]pyrimidin-8-one] | 2.3 ± 0.2 Trolox equivalents | 54.6 ± 1.8% | 384 ± 19.4 nM |  |  |  |  |
| O=c1c2c(nc3n1CCCCC3)Oc1c(ccc3ccccc13)C2c1ccccc1 (centres unmarked) [4Ac, 7-Phenyl-11,12,13,14-tetrahydro-7H-benzo[7,8]chromeno[2′,3′,4,5]pyrimido[1,2-a]azepin-8(10H)-one] | 2.5 ± 0.1 Trolox equivalents | 24.2 ± 3.1% | 290 ± 8.3 nM |  |  |  |  |
| COc1cccc(C2c3ccc4ccccc4c3Oc3nc4n(c(=O)c32)CCC4)c1 (centres unmarked) [4Ba, 7-(3′-Methoxyphenyl)-11,12-dihydro-7H-benzo[7,8]chromeno[2,3-d]pyrrolo[1,2-a]pyrimidin-8(10H)-one] | 3.8 ± 0.1 Trolox equivalents | 38 ± 1.6% | 327 ± 38.9 nM |  |  |  |  |
| COc1cccc(C2c3ccc4ccccc4c3Oc3nc4n(c(=O)c32)CCCC4)c1 (centres unmarked) [4Bb, 7-(3′-Methoxyphenyl)-10,11,12,13-tetrahydro-7H-benzo[7,8]chromeno[2,3-d]pyrido[1,2-a]pyrimidin-8-one] | 3.7 ± 0.2 Trolox equivalents | < 10% | 153 ± 3.1 nM |  |  |  |  |
| COc1cccc(C2c3ccc4ccccc4c3Oc3nc4n(c(=O)c32)CCCCC4)c1 (centres unmarked) [4Bc, 7-(3′-Methoxyphenyl)-11,12,13,14-tetrahydro-7H-benzo[7,8]chromeno[2′,3′,4,5]pyrimido[1,2-a]azepin-8(10H)-one] | 3.4 ± 0.2 Trolox equivalents | 31.1 ± 2.1% | 195 ± 6.2 nM |  |  |  |  |
| Cc1ccc(C2c3ccc4ccccc4c3Oc3nc4n(c(=O)c32)CCC4)cc1 (centres unmarked) [4Ca, 7-(4′-Methylphenyl)-11,12-dihydro-7H-benzo[7,8]chromeno[2,3-d]pyrrolo[1,2-a]pyrimidin-8(10H)-one] | 3.2 ± 0.1 Trolox equivalents | 26.8 ± 2.9% | 116 ± 6.2 nM |  |  |  |  |
| Cc1ccc(C2c3ccc4ccccc4c3Oc3nc4n(c(=O)c32)CCCC4)cc1 (centres unmarked) [4Cb, 7-(4′-Methylphenyl)-10,11,12,13-tetrahydro-7H-benzo[7,8]chromeno[2,3-d]pyrido[1,2-a]pyrimidin-8-one] | 2.9 ± 0.1 Trolox equivalents | 24.4 ± 1.2% | 193 ± 18.7 nM |  |  |  |  |
| Cc1ccc(C2c3ccc4ccccc4c3Oc3nc4n(c(=O)c32)CCCCC4)cc1 (centres unmarked) [4Cc, 17-(4′-Methylphenyl)-11,12,13,14-tetrahydro-7H-benzo[7,8]chromeno[2′,3′,4,5]pyrimido[1,2-a]azepin-8(10H)-one] | 3.6 ± 0.2 Trolox equivalents | < 10% | 174 ± 5.9 nM |  |  |  |  |
| COc1cc(/C=C/C(=O)O)ccc1O [Ferulic acid] |  |  |  | 3.7 ± 0.1 [22] Trolox equivalents | 3.7 Trolox equivalents |  |  |
| CN1C(C(=O)Nc2ccccn2)=C(O)c2ccccc2S1(=O)=O [Piroxicam, reference compound] |  |  |  |  |  | 2.2 ± 0.15 ×10⁻⁶ cm/s | CNS (+/−) (‘CNS (+/−) (BBB permeability uncertain); Pe (10^−6 cm·s^−1) from 4.0 to 2.0) |
| CCN(C)C(=O)Oc1cccc([C@H](C)N(C)C)c1 [Rivastigmine, reference compound] |  |  |  |  |  | 6.6 ± 0.5 ×10⁻⁶ cm/s |  |

Source: article PMC6273488, “Synthesis and Biological Evaluation of Benzochromenopyrimidinones as Cholinesterase Inhibitors and Potent Antioxidant, Non-Hepatotoxic Agents for Alzheimer’s Disease” (Molecules, 2016)
